Laboratory results: US20180000085A1, “USE OF PICOLINAMIDE COMPOUNDS WITH FUNGICIDAL ACTIVITY” (DOW AGROSCIENCES LLC, priority 2014, published 2018)

Assays:
Puccinia triticina = test: Wheat brown rust (PUCCRT) disease control on wheat seedlings; assay type: in vivo; design: key to PUCCRT 3DC, HV activity at 100 ppm (% control rating) / PUCCRT disease control, 3DC / PUCCRT 1DP disease control rating, HV activity / PUCCRT 3DC disease control rating, HV activity / PUCCRT 3DC, LV activity at 125.1 g/H (% Control rating) / PUCCRT 1DP, LV activity at 125.1 g/H (% Control rating) / PUCCRT 3DC disease control rating, LV activity at 125.1 g/H / PUCCRT 1DP disease control rating, LV activity at 125.1 g/H / PUCCRT 3DC disease control rating, HV activity at 100 ppm / PUCCRT 1DP disease control rating, HV activity at 100 ppm / HV activity at 100 ppm PUCCRT 3DC (disease control rating) / LV activity at 125.1 g/H PUCCRT 1DP (disease control rating) / LV activity at 125.1 g/H PUCCRT 3DC (disease control rating): A: > 80; B: ≤ 80; C: Not Tested; D: No Activity Observed in the Reported Assay; conditions: low volume application, 125.1 g/H; for PUCCRT 1DP disease control rating, LV activity at 125.1 g/H: 1 day protectant; for PUCCRT 3DC disease control rating, LV activity at 125.1 g/H: 3 day curative
Zymoseptoria tritici = test: Leaf blotch of wheat (SEPTTR) disease control on wheat seedlings; assay type: in vivo; design: key to SEPTTR 1DP, HV activity at 100 ppm (% control rating) / SEPTTR 3DC, HV activity at 100 ppm (% control rating) / SEPTTR disease control, 1DP / SEPTTR disease control, 3DC / SEPTTR 1DP disease control rating, HV activity / SEPTTR 3DC disease control rating, HV activity / SEPTTR 3DC, LV activity at 125.1 g/H (% Control rating) / SEPTTR 1DP, LV activity at 125.1 g/H (% Control rating) / SEPTTR 1DP disease control rating, LV activity at 125.1 g/H / SEPTTR 3DC disease control rating, LV activity at 125.1 g/H / SEPTTR 3DC disease control rating, HV activity at 100 ppm / SEPTTR 1DP disease control rating, HV activity at 100 ppm / HV activity at 100 ppm SEPTTR 3DC (disease control rating) / HV activity at 100 ppm SEPTTR 1DP (disease control rating) / LV activity at 125.1 g/H SEPTTR 1DP (disease control rating) / LV activity at 125.1 g/H SEPTTR 3DC (disease control rating): A: > 80; B: ≤ 80; C: Not Tested; D: No Activity Observed in the Reported Assay; conditions: low volume application, 125.1 g/H; for SEPTTR 1DP disease control rating, LV activity at 125.1 g/H: 1 day protectant; for SEPTTR 3DC disease control rating, LV activity at 125.1 g/H: 3 day curative

Structure (SMILES)	PUCCRT 1DP disease control rating, LV activity at 125.1 g/H (Puccinia triticina)	PUCCRT 3DC disease control rating, LV activity at 125.1 g/H (Puccinia triticina)	SEPTTR 1DP disease control rating, LV activity at 125.1 g/H (Zymoseptoria tritici)	SEPTTR 3DC disease control rating, LV activity at 125.1 g/H (Zymoseptoria tritici)
CCC(CC)C(Oc1cccc(F)c1)C(C)OC(=O)C(C)NC(=O)c1nccc(OC)c1OC(C)=O (stereo not shown) [Cmpd 673]	A (> 80)	B (≤ 80)	B (≤ 80)	A (> 80)
CCC(CC)C(Oc1ccc(Cl)cc1)C(C)OC(=O)C(C)NC(=O)c1nccc(OC)c1OC(C)=O (stereo not shown) [Cmpd 674]	A (> 80)	B (≤ 80)	A (> 80)	A (> 80)
CCC(CC)C(Oc1ccc(Cl)cc1Cl)C(C)OC(=O)C(C)NC(=O)c1nccc(OC)c1OC(C)=O (stereo not shown) [Cmpd 675]	A (> 80)	B (≤ 80)	A (> 80)	A (> 80)
CCC(CC)C(Oc1cc(F)cc(Cl)c1)C(C)OC(=O)C(C)NC(=O)c1nccc(OC)c1OC(C)=O (stereo not shown) [Cmpd 677]	B (≤ 80)	B (≤ 80)	B (≤ 80)	B (≤ 80)
CC(=O)Oc1cccnc1C(=O)NC(C)C(=O)OC(C)C(Oc1ccccc1)C(C)C (stereo not shown) [Cmpd 678]	B (≤ 80)	D	A (> 80)	B (≤ 80)
CC(=O)OCOc1c(Cl)ccnc1C(=O)NC(C)C(=O)OC(C)C(Oc1ccccc1)C(C)C (stereo not shown) [Cmpd 679]	B (≤ 80)	D	D	B (≤ 80)
CCC(CC)C(Oc1cccc(F)c1)C(C)OC(=O)C(CC(C)C)NC(=O)c1nccc(OC)c1OCOC(C)=O (stereo not shown) [Cmpd 680]	D	B (≤ 80)	B (≤ 80)	B (≤ 80)
CCC(CC)C(Oc1ccc(Cl)cc1)C(C)OC(=O)C(CC(C)C)NC(=O)c1nccc(OC)c1OCOC(C)=O (stereo not shown) [Cmpd 681]	D	D	D	B (≤ 80)
CCC(CC)C(Oc1cc(F)ccc1F)C(C)OC(=O)C(CC(C)C)NC(=O)c1nccc(OC)c1OCOC(C)=O (stereo not shown) [Cmpd 682]	B (≤ 80)	B (≤ 80)	B (≤ 80)	B (≤ 80)
CCC(CC)C(Oc1cc(F)cc(Cl)c1)C(C)OC(=O)C(CC(C)C)NC(=O)c1nccc(OC)c1OCOC(C)=O (stereo not shown) [Cmpd 683]	D	D	D	B (≤ 80)
CCC(CC)C(Oc1ccc(Cl)cc1Cl)C(C)OC(=O)C(CC(C)C)NC(=O)c1nccc(OC)c1OCOC(C)=O (stereo not shown) [Cmpd 684]	B (≤ 80)	D	D	D
CCC(CC)C(Oc1cccc(F)c1)C(C)OC(=O)C(CC(C)C)NC(=O)c1nccc(OC)c1OC(C)=O (stereo not shown) [Cmpd 685]	B (≤ 80)	D	D	B (≤ 80)
CCC(CC)C(Oc1ccc(Cl)cc1)C(C)OC(=O)C(CC(C)C)NC(=O)c1nccc(OC)c1OC(C)=O (stereo not shown) [Cmpd 686]	D	D	D	B (≤ 80)
